Results on six compounds are retold here after US20240209028A1, “CNP COMPOUNDS” (priority 2022, published 2024).

In this assay the target is T1, human natriuretic peptide receptor 2 (hNPR2) (Homo sapiens, UniProt P20594).
T1 construct: expressed in transfected cells; host or cells: HEK293 (ATCC CRL-1573), clone 35, co-transfected with pGloSensor-42F
T1 sequence (P20594 23-1047): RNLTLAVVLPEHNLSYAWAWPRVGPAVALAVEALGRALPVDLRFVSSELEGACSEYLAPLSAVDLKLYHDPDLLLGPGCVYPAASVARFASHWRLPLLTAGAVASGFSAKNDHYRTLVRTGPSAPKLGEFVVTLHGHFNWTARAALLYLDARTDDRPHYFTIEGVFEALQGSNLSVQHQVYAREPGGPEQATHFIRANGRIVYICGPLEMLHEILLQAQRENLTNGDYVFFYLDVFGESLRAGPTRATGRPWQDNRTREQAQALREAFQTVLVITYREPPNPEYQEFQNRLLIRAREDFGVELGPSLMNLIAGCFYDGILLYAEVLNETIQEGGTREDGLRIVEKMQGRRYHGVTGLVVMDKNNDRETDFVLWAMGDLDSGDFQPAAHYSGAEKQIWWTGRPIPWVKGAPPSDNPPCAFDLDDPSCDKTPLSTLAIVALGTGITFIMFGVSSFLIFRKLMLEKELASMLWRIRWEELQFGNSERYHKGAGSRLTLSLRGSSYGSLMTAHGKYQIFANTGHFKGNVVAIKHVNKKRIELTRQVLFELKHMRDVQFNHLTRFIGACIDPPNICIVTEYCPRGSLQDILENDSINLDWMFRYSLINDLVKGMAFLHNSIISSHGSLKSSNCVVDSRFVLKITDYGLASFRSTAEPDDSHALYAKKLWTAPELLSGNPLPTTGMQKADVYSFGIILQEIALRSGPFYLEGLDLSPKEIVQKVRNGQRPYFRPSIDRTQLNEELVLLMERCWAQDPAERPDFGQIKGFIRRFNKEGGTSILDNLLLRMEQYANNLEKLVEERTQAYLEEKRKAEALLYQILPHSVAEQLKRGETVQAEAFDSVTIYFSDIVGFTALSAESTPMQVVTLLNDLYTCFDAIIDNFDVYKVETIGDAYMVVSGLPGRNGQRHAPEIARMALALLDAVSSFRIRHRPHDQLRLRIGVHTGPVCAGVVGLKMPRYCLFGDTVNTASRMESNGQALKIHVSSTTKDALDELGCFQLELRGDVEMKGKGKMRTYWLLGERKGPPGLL
In words: In vitro hNPR2 activity assay (cGMP GloSensor reporter, HEK293). In kind it is cell-based. Conditions: potency relative to CNP22 (0065). The method in brief: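 Potency is the EC50 from a four-parameter logistic fit, also expressed relative to the in-plate CNP22 control (×100), with at least two replicates. Compounds (ten concentrations, […], HSA-free diluent with 1% OVA, 0.01% Tween20) were incubated 30 min at 37 °C on HEK293 cells co-expressing hNPR2 and a GloSensor cGMP luciferase. Luminescence detected with Bright-Glo.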

Molecules are shown by their SMILES. Starred links: 1 amine or outer side, 2 acyl side, 3 side chain; linkers in the order of their positions; H or OH if unused. Positions of bridges follow the written chain, without caps; N, C: chain ends. Residues, ends and D or L forms follow the SMILES beside them. *: point of attachment. C18 diacid = O=C(O)CCCCCCCCCCCCCCCCC(=O)*; γGlu = O=C(O)[C@H](CCC(=O)[*:2])N[*:1]; AEEA = NCCOCCOCC(=O)O

`CC[C@H](C)[C@@H]1NC(=O)[C@H](CCCNC(=N)N)NC(=O)[C@H](CC(=O)O)NC(=O)[C@H](CC(C)C)NC(=O)[C@@H]2CCCN2C(=O)[C@H](CC(C)C)NC(=O)CNC(=O)[C@H](Cc2ccccc2)NC(=O)[C@@H](NC(=O)CNC(=O)[C@H](CCC(N)=O)NC(=O)[C@H](CO)NC(=O)[C@H](CC(C)C)NC(=O)CNC(=O)[C@H](CCCCN)NC(=O)[C@H](CCCCN)NC(=O)[C@H](CCC(N)=O)NC(=O)[C@H](C)NC(=O)CNC(=O)[C@H](CCCCN)NC(=O)[C@H](Cc2ccc(O)cc2)NC(=O)[C@H](CCCCN)NC(=O)[C@H](CCCNC(=N)N)NC(=O)[C@H](C)NC(=O)COCCOCCNC(=O)COCCOCCNC(=O)CC[C@H](NC(=O)CC[C@H](NC(=O)CC[C@H](NC(=O)CC[C@H](NC(=O)CCCCCCCCCCCCCCCCC(=O)O)C(=O)O)C(=O)O)C(=O)O)C(=O)O)CSSC[C@@H](C(=O)O)NC(=O)CNC(=O)[C@H](CC(C)C)NC(=O)CNC(=O)[C@H](CO)NC(=O)[C@H](CC(C)C)NC(=O)[C@H](CO)NC(=O)CNC1=O` [compound 1456] ({C18 diacid-γGlu-γGlu-γGlu-γGlu-AEEA-AEEA}-ARKYKGAQKKGLSQGCFGLPLDRIGSLSGLGC-OH; disulfide 16-32): the “hNPR2 0% HSA. [EC50% rel CNP]” value is 50.4%.
In the case of `CC[C@H](C)[C@@H]1NC(=O)[C@H](CCCNC(=N)N)NC(=O)[C@H](CC(=O)O)NC(=O)[C@H](CC(C)C)NC(=O)[C@@H]2CCCN2C(=O)[C@H](CC(C)C)NC(=O)CNC(=O)[C@H](Cc2ccccc2)NC(=O)[C@@H](NC(=O)CNC(=O)[C@H](CCC(N)=O)NC(=O)[C@H](CO)NC(=O)[C@H](CO)NC(=O)CNC(=O)[C@H](CCCCN)NC(=O)[C@H](CCCCN)NC(=O)[C@H](CCC(N)=O)NC(=O)[C@H](C)NC(=O)CNC(=O)[C@@H]2CCCN2C(=O)[C@H](C)NC(=O)[C@H](CCC(N)=O)NC(=O)CNC(=O)[C@@H]2CCCN2C(=O)[C@H](C)NC(=O)[C@H](CCC(N)=O)NC(=O)CNC(=O)COCCOCCNC(=O)COCCOCCNC(=O)CC[C@H](NC(=O)CCCCCCCCCCCCCCCCC(=O)O)C(=O)O)CSSC[C@@H](C(=O)O)NC(=O)CNC(=O)[C@H](CC(C)C)NC(=O)CNC(=O)[C@H](CO)NC(=O)[C@H](CC(C)C)NC(=O)[C@H](CO)NC(=O)CNC1=O` [compound 1458] ({C18 diacid-γGlu-AEEA-AEEA}-GQAPGQAPGAQKKGSSQGCFGLPLDRIGSLSGLGC-OH; disulfide 19-35), the “hNPR2 0% HSA. [EC50% rel CNP]” value was determined as 93.6%.
Next, `CC[C@H](C)[C@@H]1NC(=O)[C@H](CCCNC(=N)N)NC(=O)[C@H](CC(=O)O)NC(=O)[C@H](CC(C)C)NC(=O)[C@@H]2CCCN2C(=O)[C@H](CC(C)C)NC(=O)CNC(=O)[C@H](Cc2ccccc2)NC(=O)[C@@H](NC(=O)CNC(=O)[C@H](CCC(N)=O)NC(=O)[C@H](CO)NC(=O)[C@H](CO)NC(=O)CNC(=O)[C@H](CCCCN)NC(=O)[C@H](CCCCN)NC(=O)[C@H](CCC(N)=O)NC(=O)[C@H](C)NC(=O)CNC(=O)[C@H](CCCCN)NC(=O)[C@H](Cc2ccc(O)cc2)NC(=O)[C@H](CCCCN)NC(=O)[C@H](CCCNC(=N)N)NC(=O)[C@H](C)NC(=O)[C@@H]2CCCN2C(=O)[C@H](C)NC(=O)[C@H](CCC(N)=O)NC(=O)CNC(=O)COCCOCCNC(=O)COCCOCCNC(=O)CC[C@H](NC(=O)CC[C@H](NC(=O)CC[C@H](NC(=O)CC[C@H](NC(=O)CCCCCCCCCCCCCCCCC(=O)O)C(=O)O)C(=O)O)C(=O)O)C(=O)O)CSSC[C@@H](C(=O)O)NC(=O)CNC(=O)[C@H](CC(C)C)NC(=O)CNC(=O)[C@H](CO)NC(=O)[C@H](CC(C)C)NC(=O)[C@H](CO)NC(=O)CNC1=O` [compound 1459] ({C18 diacid-γGlu-γGlu-γGlu-γGlu-AEEA-AEEA}-GQAPARKYKGAQKKGSSQGCFGLPLDRIGSLSGLGC-OH; disulfide 20-36): 76.1%.
In the case of `CC[C@H](C)[C@@H]1NC(=O)[C@H](CCCNC(=N)N)NC(=O)[C@H](CC(=O)O)NC(=O)[C@H](CC(C)C)NC(=O)[C@@H]2CCCN2C(=O)[C@H](CC(C)C)NC(=O)CNC(=O)[C@H](Cc2ccccc2)NC(=O)[C@@H](NC(=O)CNC(=O)[C@H](CCCCN)NC(=O)[C@H](CO)NC(=O)[C@H](CC(C)C)NC(=O)CNC(=O)[C@H](CCCCN)NC(=O)[C@H](CCCCN)NC(=O)[C@H](CCC(N)=O)NC(=O)[C@H](C)NC(=O)CNC(=O)[C@H](CCCCN)NC(=O)[C@H](Cc2ccc(O)cc2)NC(=O)[C@H](CCCCN)NC(=O)[C@H](CCCNC(=N)N)NC(=O)[C@H](C)NC(=O)COCCOCCNC(=O)COCCOCCNC(=O)CC[C@H](NC(=O)CC[C@H](NC(=O)CC[C@H](NC(=O)CC[C@H](NC(=O)CC[C@H](NC(=O)CC[C@H](NC(=O)CCCCCCCCCCCCCCCCC(=O)O)C(=O)O)C(=O)O)C(=O)O)C(=O)O)C(=O)O)C(=O)O)CSSC[C@@H](C(=O)O)NC(=O)CNC(=O)[C@H](CC(C)C)NC(=O)CNC(=O)[C@H](CO)NC(=O)[C@H](CC(C)C)NC(=O)[C@H](CO)NC(=O)CNC1=O` [compound 1460] ({C18 diacid-γGlu-γGlu-γGlu-γGlu-γGlu-γGlu-AEEA-AEEA}-ARKYKGAQKKGLSKGCFGLPLDRIGSLSGLGC-OH; disulfide 16-32), the “hNPR2 0% HSA. [EC50% rel CNP]” value is listed as 32.4%.
As to `CC[C@H](C)[C@@H]1NC(=O)[C@H](CCCNC(=N)N)NC(=O)[C@H](CC(=O)O)NC(=O)[C@H](CC(C)C)NC(=O)[C@@H]2CCCN2C(=O)[C@H](CC(C)C)NC(=O)CNC(=O)[C@H](Cc2ccccc2)NC(=O)[C@@H](NC(=O)CNC(=O)[C@H](CCC(N)=O)NC(=O)[C@H](CO)NC(=O)[C@H](CC(C)C)NC(=O)CNC(=O)[C@H](CCCCN)NC(=O)[C@H](CCCCN)NC(=O)[C@H](CCC(N)=O)NC(=O)[C@H](C)NC(=O)CNC(=O)[C@H](Cc2c[nH]cn2)NC(=O)[C@H](Cc2ccc(O)cc2)NC(=O)COCCOCCNC(=O)COCCOCCNC(=O)COCCOCCNC(=O)COCCOCCNC(=O)CC[C@H](NC(=O)CC[C@H](NC(=O)CCCCCCCCCCCCCCCCC(=O)O)C(=O)O)C(=O)O)CSSC[C@@H](C(=O)O)NC(=O)CNC(=O)[C@H](CC(C)C)NC(=O)CNC(=O)[C@H](CO)NC(=O)[C@H](CC(C)C)NC(=O)[C@H](CO)NC(=O)CNC1=O` [compound 1461] ({C18 diacid-γGlu-γGlu-AEEA-AEEA-AEEA-AEEA}-YHGAQKKGLSQGCFGLPLDRIGSLSGLGC-OH; disulfide 13-29), the “hNPR2 0% HSA. [EC50% rel CNP]” value was found to be 28.9%.
Regarding `CC[C@H](C)[C@@H]1NC(=O)[C@H](CCCNC(=N)N)NC(=O)[C@H](CC(=O)O)NC(=O)[C@H](CC(C)C)NC(=O)[C@@H]2CCCN2C(=O)[C@H](CC(C)C)NC(=O)CNC(=O)[C@H](Cc2ccccc2)NC(=O)[C@@H](NC(=O)CNC(=O)[C@H](CCCCN)NC(=O)[C@H](CO)NC(=O)[C@H](CC(C)C)NC(=O)CNC(=O)[C@H](CCCCN)NC(=O)[C@H](CCCCN)NC(=O)[C@H](CCC(N)=O)NC(=O)[C@H](C)NC(=O)CNC(=O)[C@H](CCCCN)NC(=O)[C@H](Cc2ccc(O)cc2)NC(=O)[C@H](CCCCN)NC(=O)[C@H](CCCNC(=N)N)NC(=O)[C@H](C)NC(=O)COCCOCCNC(=O)COCCOCCNC(=O)COCCOCCNC(=O)COCCOCCNC(=O)CC[C@H](NC(=O)CC[C@H](NC(=O)CC[C@H](NC(=O)CC[C@H](NC(=O)CC[C@H](NC(=O)CCCCCCCCCCCCCCCCC(=O)O)C(=O)O)C(=O)O)C(=O)O)C(=O)O)C(=O)O)CSSC[C@@H](C(=O)O)NC(=O)CNC(=O)[C@H](CC(C)C)NC(=O)CNC(=O)[C@H](CO)NC(=O)[C@H](CC(C)C)NC(=O)[C@H](CO)NC(=O)CNC1=O` [compound 1462] ({C18 diacid-γGlu-γGlu-γGlu-γGlu-γGlu-AEEA-AEEA-AEEA-AEEA}-ARKYKGAQKKGLSKGCFGLPLDRIGSLSGLGC-OH; disulfide 16-32), the “hNPR2 0% HSA. [EC50% rel CNP]” value was determined as 106.6%.
